Read-outs that look alike come from different tables or passages of the source.
Key:
[1] = tested on: advanced NHL; conditions: cited from earlier work
[2] = tested on: AIDS-associated NHL
Procedure: The daily dose is diluted in 1000 cc of 0.9% Sodium Chloride Injection, USP, or 5% Dextrose Injection, USP, for infusion over 24 hours.

[3] = stability of diluted infusion solutions; format: physicochemical; conditions: in 0.9% Sodium Chloride Injection or 5% Dextrose Injection
[4] = tested on: AS283 cells
Procedure: (§1) Both human tumor cell lines were maintained in RPMI 1640 medium plus 10% fetal calf serum. They were seeded in 15-ml rubber-stoppered vials containing 2 μCi of (^14C) glucose and 2 ml of tissue culture media. […] On days 6, 9 and 12, the vials were removed from the incubator and evaluated radiometrically for the amount of ^14CO2 produced. Inhibition of conversion of (^14C) glucose to ^14CO2 is a reliable index of cytotoxicity (Von Hoff et al., Cancer Res. 45:4032-4038, 1985).

[5] = tested on: Raji line lymphoblast-like cells
Procedure: as §1

[6] = in vivo; cited from earlier work

## O=[N+]([O-])[O-].O=[N+]([O-])[O-].O=[N+]([O-])[O-].[Ga+3] [Gallium Nitrate, gallium nitrate]
[1]; HIV negative patients with advanced NHL
  tolerability and efficacy: well tolerated and effective
[1]; human, in vivo
  myelosuppression or immunosuppression: little or no myelosuppression or immunosuppression
[2]; 300 mg/sq m/day for 7 days iv, two courses
  drug-related adverse effects: not accompanied by apparent drug-related adverse effects
[2]; 300 mg/sq m/day for 7 days, intravenous infusion, baseline nodes 9.0×9.0 cm and 3.0×2.0 cm
  size of nodes after first course: decreased in size
[2]; second course three weeks later, baseline 9.0×9.0 cm
  infraclavicular node after second course: not palpable at all
[3]; refrigeration (2-8° C.)
  stability of diluted solution: 7 days
[3]; room temperature (15-30° C.)
  stability of diluted solution: 2 days
[4]; final concentration 1 mcg/ml
  % SURVIVAL AS283: 99%
[4]; final concentration 10 mcg/ml
  % SURVIVAL AS283: 122%
[4]; final concentration 50 mcg/ml
  % SURVIVAL AS283: 58%
[4]; final concentration 100 mcg/ml
  % SURVIVAL AS283: 0%
[5]; final concentration 1 mcg/ml
  % SURVIVAL RAJI: 102%
[5]; final concentration 10 mcg/ml
  % SURVIVAL RAJI: 114%
[5]; final concentration 100 mcg/ml
  % SURVIVAL RAJI: 33%
[6]
  blood-brain barrier passage: crosses the blood-brain barrier

## CC(/C=N/NC(=N)N)=N\NC(=N)N [mitoguazone]
[2]; same patient, before gallium nitrate
  response to previous treatment: essentially unresponsive

Reference: patent US6562870B1 (priority 1994, dated 2003)
